Data taken from ChEMBL document CHEMBL4007454 (J Med Chem, 2017).
In brackets after ≈: the same amount, converted by molar mass.

Columns and labels:
[1] = Equilibrium solubility in simulated gastric fluid after 24 hrs by HPLC method; assay type: physicochemical
[2] = Clearance in Han-Wistar rat at 2 mg/kg, iv measured after 2 to 480 mins by LC-MS/MS analysis; assay type: ADME, organism-based; conditions: in vivo
[3] = Initial concentration in Han-Wistar rat at 2 mg/kg, iv measured after 2 to 480 mins by LC-MS/MS analysis; assay type: ADME, organism-based; conditions: in vivo
Cytochrome P450 3A4 [4] = molecular target: T1, Cytochrome P450 3A4 (Homo sapiens, UniProt P08684); test: Time dependent inhibition of human CYP3A4; assay type: ADME
T1 sequence (P08684 whole entry): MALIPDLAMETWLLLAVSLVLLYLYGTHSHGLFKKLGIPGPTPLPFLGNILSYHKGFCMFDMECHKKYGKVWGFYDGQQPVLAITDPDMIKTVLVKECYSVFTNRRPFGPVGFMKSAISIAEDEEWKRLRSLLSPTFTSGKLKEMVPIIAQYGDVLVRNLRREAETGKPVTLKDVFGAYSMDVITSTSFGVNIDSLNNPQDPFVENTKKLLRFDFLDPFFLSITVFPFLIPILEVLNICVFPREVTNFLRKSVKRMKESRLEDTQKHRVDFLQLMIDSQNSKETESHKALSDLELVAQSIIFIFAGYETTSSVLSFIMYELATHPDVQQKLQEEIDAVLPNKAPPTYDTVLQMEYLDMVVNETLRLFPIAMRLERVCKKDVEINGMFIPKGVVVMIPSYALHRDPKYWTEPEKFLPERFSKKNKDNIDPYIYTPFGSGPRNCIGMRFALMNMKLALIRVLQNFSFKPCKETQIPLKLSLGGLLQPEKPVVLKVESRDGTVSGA

Cytochrome P450 2C9 = Cytochrome P450 2C9 (Homo sapiens, UniProt P11712); test: Inhibition of human CYP2C9; assay type: ADME
Chain of Cytochrome P450 2C9 (P11712 whole entry): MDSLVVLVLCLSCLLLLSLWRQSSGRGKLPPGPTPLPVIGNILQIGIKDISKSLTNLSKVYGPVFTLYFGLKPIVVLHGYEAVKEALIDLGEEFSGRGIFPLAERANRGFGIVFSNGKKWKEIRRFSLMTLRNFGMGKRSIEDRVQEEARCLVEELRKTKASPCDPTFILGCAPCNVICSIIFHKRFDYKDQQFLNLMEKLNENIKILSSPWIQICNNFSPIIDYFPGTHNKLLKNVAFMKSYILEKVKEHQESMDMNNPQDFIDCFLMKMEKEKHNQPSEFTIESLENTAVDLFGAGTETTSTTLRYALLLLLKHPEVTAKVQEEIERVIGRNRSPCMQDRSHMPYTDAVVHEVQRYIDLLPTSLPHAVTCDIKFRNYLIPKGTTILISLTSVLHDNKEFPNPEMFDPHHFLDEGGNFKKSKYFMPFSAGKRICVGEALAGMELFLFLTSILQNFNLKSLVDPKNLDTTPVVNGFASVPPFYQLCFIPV

[5] = Tmax in Han-Wistar rat at 10 mg/kg, po measured after 15 to 480 mins by LC-MS/MS analysis; assay type: ADME, organism-based; conditions: in vivo
Cytochrome P450 2D6 = Cytochrome P450 2D6 (Homo sapiens, UniProt P10635); test: Inhibition of human CYP2D6; assay type: ADME
Chain of Cytochrome P450 2D6 (P10635 whole entry): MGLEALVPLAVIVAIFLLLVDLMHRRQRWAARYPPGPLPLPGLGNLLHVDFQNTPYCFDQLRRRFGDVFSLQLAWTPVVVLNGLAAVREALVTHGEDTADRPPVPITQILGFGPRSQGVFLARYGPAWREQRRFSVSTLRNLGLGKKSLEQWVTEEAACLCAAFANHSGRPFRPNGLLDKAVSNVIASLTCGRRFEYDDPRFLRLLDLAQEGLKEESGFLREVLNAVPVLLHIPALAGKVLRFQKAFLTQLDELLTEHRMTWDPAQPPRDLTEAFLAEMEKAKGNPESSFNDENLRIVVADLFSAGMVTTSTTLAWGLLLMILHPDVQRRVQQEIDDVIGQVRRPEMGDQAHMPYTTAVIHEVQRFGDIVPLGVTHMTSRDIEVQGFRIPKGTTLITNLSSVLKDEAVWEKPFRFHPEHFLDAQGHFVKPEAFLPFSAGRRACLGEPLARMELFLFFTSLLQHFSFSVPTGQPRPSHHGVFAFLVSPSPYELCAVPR

[6] = Oral bioavailability in Han-Wistar rat at 10 mg/kg, measured after 15 to 480 mins by LC-MS/MS analysis; assay type: ADME, organism-based; conditions: in vivo
[7] = Intrinsic clearance in rat hepatocytes assessed per million cells at 1 uM after 180 mins by LC-MS/MS analysis; assay type: ADME, cell-based, Hepatocyte; conditions: read-out: CLH
Mus musculus [8] = test: In vivo inhibition of LRRK2 Ser935 phosphorylation in mouse brain assessed as unbound plasma concentration causing reduction in ratio of phosphorylated Ser935 to total LRRK2 protein at 1 to 100 mg/kg, po administered 1 hr post treatment by Western blot analysis; assay type: functional, organism-based
[9] = Intrinsic clearance in human hepatocytes assessed per million cells at 1 uM after 180 mins by LC-MS/MS analysis; assay type: ADME, cell-based, Hepatocyte; conditions: read-out: CLH
[10] = MRT in Han-Wistar rat at 2 mg/kg, iv measured after 2 to 480 mins by LC-MS/MS analysis; assay type: ADME, organism-based; conditions: in vivo
Rattus norvegicus [11] = test: In vivo inhibition of LRRK2 Ser935 phosphorylation in CD rat brain cortex assessed as reduction in ratio of phosphorylated Ser935 to total LRRK2 protein at => 30 mg/kg, po administered 1 hr post treatment by Western blot analysis; assay type: functional
[12] = Equilibrium solubility in Water after 24 hrs by HPLC method; assay type: physicochemical
Rattus norvegicus [13] = test: In vivo inhibition of LRRK2 Ser935 phosphorylation in CD rat brain cortex assessed as unbound brain concentration causing reduction in ratio of phosphorylated Ser935 to total LRRK2 protein at 1 to 100 mg/kg, po administered 1 hr post treatment by Western blot analysis; assay type: functional
[14] = Fraction unbound in rat plasma at 10 uM after 4 hrs by rapid equilibrium dialysis method; assay type: ADME, cell-free
[15] = MRT in Han-Wistar rat at 10 mg/kg, po measured after 15 to 480 mins by LC-MS/MS analysis; assay type: ADME, organism-based; conditions: in vivo
Mus musculus [16] = test: In vivo inhibition of LRRK2 Ser935 phosphorylation in mouse brain cortex assessed as reduction in ratio of phosphorylated Ser935 to total LRRK2 protein at =>10 mg/kg, po administered 1 hr prior to euthanasia measured by Western blot analysis; assay type: functional
[17] = AUC (0 to 8 hrs) in Han-Wistar rat at 2 mg/kg, iv measured after 2 to 480 mins by LC-MS/MS analysis; assay type: ADME, organism-based; set-up: time < 8 hr, dose 2 mg/kg, route intravenous; conditions: in vivo
Cytochrome P450 3A4 [18] = molecular target: T1, Cytochrome P450 3A4; test: Inhibition of human CYP3A4; assay type: ADME
[19] = Equilibrium solubility in fasted state simulated intestinal fluid after 24 hrs by HPLC method; assay type: physicochemical
[20] = Equilibrium solubility in pH 5 acetate buffer after 24 hrs by HPLC method; assay type: physicochemical
Mus musculus [21] = test: In vivo inhibition of LRRK2 Ser935 phosphorylation in mouse brain assessed as unbound brain concentration causing reduction in ratio of phosphorylated Ser935 to total LRRK2 protein at 1 to 100 mg/kg, po administered 1 hr post treatment by Western blot analysis; assay type: functional, organism-based
[22] = Equilibrium solubility in pH 6.5 Phosphate buffer after 24 hrs by HPLC method; assay type: physicochemical
[23] = Half life in Han-Wistar rat at 2 mg/kg, iv measured after 2 to 480 mins by LC-MS/MS analysis; assay type: ADME, organism-based; conditions: in vivo
[24] = Cmax in Han-Wistar rat at 10 mg/kg, po measured after 15 to 480 mins by LC-MS/MS analysis; assay type: ADME, organism-based; conditions: in vivo, read-out: C0
Rattus norvegicus [25] = test: In vivo inhibition of LRRK2 Ser935 phosphorylation in CD rat brain cortex assessed as unbound plasma concentration causing reduction in ratio of phosphorylated Ser935 to total LRRK2 protein at 1 to 100 mg/kg, po administered 1 hr post treatment by Western blot analysis; assay type: functional
[26] = AUC (0 to 8 hrs) in Han-Wistar rat at 10 mg/kg, po measured after 15 to 480 mins by LC-MS/MS analysis; assay type: ADME, organism-based; set-up: dose 10 mg/kg, time < 8 hr, route oral; conditions: in vivo
[27] = Equilibrium solubility in fed state simulated intestinal fluid after 24 hrs by HPLC method; assay type: physicochemical

- solubility thermodynamic at 24 h [1]: 14 to 38 µg/mL (≈ 36.9 to 100 µM)
- clearance [2]: 153 mL/min/kg
- C0 [3]: 1170 nM
- TDI (Cytochrome P450 3A4 [4]): Not Active
- IC50 (Cytochrome P450 2C9): > 50000 nM
- Tmax [5]: 1.3 h
- IC50 (Cytochrome P450 2D6): > 50000 nM
- bioavailability [6]: 39%
- hepatocyte CLint at 1 µM [7]: 15 µL/min/1e6 cells
- IC50 (Mus musculus [8]): 1.1 nM
- hepatocyte CLint at 1 µM [9]: 8 µL/min/1e6 cells
- MRT [10]: 1.7 h
- solubility thermodynamic at 24 h [12]: 14 to 38 µg/mL (≈ 36.9 to 100 µM)
- fraction unbound at 4 h, 10 µM [14]: 0.012
- MRT [15]: 4 h
- AUC(0-t) at 8 h [17]: 0.66 µM·h
- IC50 (Cytochrome P450 3A4 [18]): > 50000 nM
- solubility thermodynamic at 24 h [19]: 14 to 38 µg/mL (≈ 36.9 to 100 µM)
- solubility thermodynamic at 24 h [20]: 14 to 38 µg/mL (≈ 36.9 to 100 µM)
- IC50 (Mus musculus [21]): 0.8 nM
- solubility thermodynamic at 24 h [22]: 14 to 38 µg/mL (≈ 36.9 to 100 µM)
- half-life [23]: 1.8 h
- Cmax [24]: 480 nM
- AUC(0-t) at 8 h [26]: 1.3 µM·h
- solubility thermodynamic at 24 h [27]: 14 to 38 µg/mL (≈ 36.9 to 100 µM)
SMILES: C[C@@H]1CN(c2cc(-c3n[nH]c4ccc(OC5(C)CC5)cc34)ncn2)C[C@H](C)O1 [MLi-2]
- inhibition (INH) (Rattus norvegicus [11]): >90%
- fIC50 (Rattus norvegicus [13]): 0.18 nM
- inhibition (INH) (Mus musculus [16]): >90%
- fIC50 (Rattus norvegicus [25]): 0.2 nM
